US9273043B2, “TRPV1 antagonists including dihydroxy substituent and uses thereof” (Purdue Pharma L.P., priority 2011, dated 2016)
In brackets after ≈: the same amount, converted by molar mass. Read-outs that look alike come from different tables or passages of the source.

How the values were obtained:
[1] = molecular target: human TRPV1 (Homo sapiens (Human), UniProt Q8NER1); experiment: Capsaicin-based assay, Protocol 2, TRPV1/CHO cells (hCAP-CHO), Fluo-4 FLIPR; assay type: cell-based; settings: 100 nM capsaicin, mean ± SEM
Sequence of human TRPV1 (Q8NER1 whole entry, looked up): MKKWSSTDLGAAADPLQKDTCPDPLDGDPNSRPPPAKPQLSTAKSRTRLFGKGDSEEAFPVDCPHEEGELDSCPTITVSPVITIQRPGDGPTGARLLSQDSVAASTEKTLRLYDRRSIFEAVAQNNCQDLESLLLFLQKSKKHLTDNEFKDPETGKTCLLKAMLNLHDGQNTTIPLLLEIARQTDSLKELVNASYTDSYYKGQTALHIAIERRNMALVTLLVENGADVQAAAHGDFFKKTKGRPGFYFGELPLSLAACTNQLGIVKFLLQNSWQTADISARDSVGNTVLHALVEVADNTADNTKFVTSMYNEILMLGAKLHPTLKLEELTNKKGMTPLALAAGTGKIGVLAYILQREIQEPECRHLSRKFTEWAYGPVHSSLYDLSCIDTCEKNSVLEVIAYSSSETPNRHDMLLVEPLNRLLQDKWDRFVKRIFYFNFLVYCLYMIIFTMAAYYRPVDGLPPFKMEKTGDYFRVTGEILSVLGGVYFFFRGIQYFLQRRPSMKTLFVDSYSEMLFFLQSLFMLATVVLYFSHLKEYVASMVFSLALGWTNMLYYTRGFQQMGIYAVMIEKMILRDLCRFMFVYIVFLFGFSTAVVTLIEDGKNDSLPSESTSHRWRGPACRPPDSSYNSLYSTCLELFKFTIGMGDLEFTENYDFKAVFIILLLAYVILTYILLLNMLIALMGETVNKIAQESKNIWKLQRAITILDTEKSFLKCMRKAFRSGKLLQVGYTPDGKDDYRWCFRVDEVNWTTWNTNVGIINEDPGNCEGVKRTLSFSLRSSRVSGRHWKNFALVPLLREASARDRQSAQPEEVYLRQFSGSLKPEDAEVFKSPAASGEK
How it was run: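 CHO cells stably transfected with human TRPV1 cDNA (G418-selected) were loaded with 3 μM Fluo-4 for 1 h, washed, then read on FLIPR with 15 s baseline before additions. Compound tested at final 100 μM to 1.5625 μM against capsaicin stimulation; calcium fluorescence time course curve-fitted.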

[2] = In vivo assay of body temperature increase (rectal body temperature); design: species or system rat; settings: rats, oral, 10 mL/kg of 1 mg/mL in 0.5% methylcellulose; greatest ΔTb versus vehicle control at 0.5, 1 or 2 hrs
How it was run: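 Male Crl/SD rats (7 weeks), acclimated and preselected for rectal temperature 37.0–37.7° C., given compound orally once at 1 mg/mL in 0.5% methylcellulose, 10 mL/kg. Rectal temperature by thermistor at 0.5, 1 and 2 h post-dose; ΔTb = treated group mean minus vehicle group mean, maximum across time points reported.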

[3] = Aqueous solubility at pH 1.2 and pH 6.8; assay type: physicochemical; settings: aqueous solution
[4] = pH 1.2, simulated gastric fluid, read-out: aqueous solubility at pH 1.2
[5] = pH 6.8, aqueous buffer, read-out: aqueous solubility at pH 6.8

IC50 [1]	ΔTb, body temperature increase [2]	solubility [3, 4]	solubility [3, 5]	Compound
49 ± 10 nM	0.1 °C	–	–	C[C@H](O)[C@@H](O)c1cnc(N2CCN(C(=O)Nc3nc4cc(F)c(F)cc4s3)C[C@H]2C)c(F)c1 [B158(j), (R)—N-(5,6-difluorobenzo[d]thiazol-2-yl)-4-{5-[(1S,2S)-1,2-dihydroxypropyl]-3-fluoropyridin-2-yl}-3-methylpiperazine-1-carboxamide]
89 ± 34 nM	0.2 °C	–	–	Cc1cc2nc(NC(=O)N3CCN(c4ncc([C@H](O)[C@H](C)O)cc4F)CC3)sc2cc1C [C170(r), 4-(5-((1S,2S)-1,2-dihydroxypropyl)-3-fluoropyridin-2-yl)-N-(5,6-dimethylbenzo[d]thiazol-2-yl)piperazine-1-carboxamide]
112 ± 32 nM	0.1 °C	–	–	C[C@@H]1CN(C(=O)Nc2nc3ccc(F)cc3s2)CCN1c1ncc([C@H](O)CO)cc1F [A125(b), (R)-4-{5-[(S)-1,2-dihydroxyethyl]-3-fluoropyridin-2-yl}-N-(6-fluorobenzo[d]thiazol-2-yl)-3-methylpiperazine-1-carboxamide]
62.4 ± 13.8 nM	0.4 °C	> 50 µM	5 µM (≈ 2.34 µg/mL)	C[C@H]1CN(c2ncc([C@H](O)CO)cc2F)CCN1C(=O)Nc1nc2cc(F)c(F)cc2s1 [A158(a), (S)—N-(5,6-difluorobenzo[d]thiazol-2-yl)-4-(5-((S)-1,2-dihydroxyethyl)-3-fluoropyridin-2-yl)-2-methylpiperazine-1-carboxamide]
42.8 ± 2 nM	0.3 °C	–	–	C[C@H](O)[C@@H](O)c1cnc(N2CCN(C(=O)Nc3nc4ccc(F)cc4s3)CC2)c(Cl)c1 [C4(r), 4-{3-Chloro-5-[(1S,2S)-1,2-dihydroxypropyl]pyridin-2-yl}-N-(6-fluorobenzo[d]thiazol-2-yl)piperazine-1-carboxamide]
40.2 ± 11 nM	0.2 °C	> 50 µM	14 µM (≈ 6.24 µg/mL)	Cc1ccc2nc(NC(=O)N3CCN(c4ncc([C@H](O)CO)cc4F)C[C@@H]3C)sc2c1 [A126(a), (S)-4-(5-((S)-1,2-dihydroxyethyl)-3-fluoropyridin-2-yl)-2-methyl-N-(6-methylbenzo[d]thiazol-2-yl)piperazine-1-carboxamide]
99 ± 24 nM	0.3 °C	> 50 µM	3 µM (≈ 1.35 µg/mL)	C[C@H](O)[C@@H](O)c1cnc(N2CCN(C(=O)Nc3nc4ccc(F)cc4s3)CC2)c(F)c1 [C125(r), 4-(5-((1S,2S)-1,2-dihydroxypropyl)-3-fluoropyridin-2-yl)-N-(6-fluorobenzo[d]thiazol-2-yl)piperazine-1-carboxamide]
71 ± 20 nM	0.4 °C	> 50 µM	4 µM (≈ 1.78 µg/mL)	Cc1ccc2nc(NC(=O)N3CCN(c4ncc([C@H](O)[C@H](C)O)cc4F)CC3)sc2c1 [C126(r), 4-[5-((1S,2S)-1,2-Dihydroxy-propyl)-3-fluoro-pyridin-2-yl]piperazine-1-carboxylic acid (6-methyl-benzothiazol-2-yl)-amide]
177 ± 69 nM	0.4 °C	> 50 µM	> 50 µM	C[C@H]1CN(c2ncc([C@H](O)CO)cc2F)CCN1C(=O)Nc1nc2ccccc2s1 [A122(a), (S)—N-(benzo[d]thiazol-2-yl)-4-(5-((S)-1,2-dihydroxyethyl)-3-fluoropyridin-2-yl)-2-methylpiperazine-1-carboxamide]
68 ± 17 nM	0.5 °C	–	–	C[C@@H]1CN(C(=O)Nc2nc3cc(F)c(F)cc3s2)CCN1c1ncc([C@H](O)CO)cc1F [AE, (R)—N-(5,6-difluorobenzo[d]thiazol-2-yl)-4-{5-[(S)-1,2-dihydroxyethyl]-3-fluoropyridin-2-yl}-3-methylpiperazine-1-carboxamide]
